Target: T1, PPARγ (Homo sapiens, UniProt P37231)
T1 construct: gene PPARG
T1 sequence (P37231 231-505 limits assumed): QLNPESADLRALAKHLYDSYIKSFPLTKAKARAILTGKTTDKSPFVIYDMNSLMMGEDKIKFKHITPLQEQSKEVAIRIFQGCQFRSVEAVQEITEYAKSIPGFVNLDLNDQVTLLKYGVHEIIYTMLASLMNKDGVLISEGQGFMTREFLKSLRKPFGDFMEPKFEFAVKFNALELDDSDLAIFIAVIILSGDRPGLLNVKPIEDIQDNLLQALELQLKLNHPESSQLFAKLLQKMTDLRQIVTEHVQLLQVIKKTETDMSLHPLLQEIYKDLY
Experiment: LanthaScreen TR-FRET competitive binding assay

Structure (SMILES): C=C(C)[C@@H]1Cc2c(ccc(-c3coc4cc(O)ccc4c3=O)c2O)O1 [compound 17, 7, 2′-Dihydroxy-2′′ S-isopropenyl dihydrofuran [6′′, 7′′ : 3′, 4′]-isoflavone]
- Ki: 1.57 µM

Reference: article PMC5402262, “Synthesis and anti-obesity effects in vivo of Crotadihydrofuran C as a novel PPARγ antagonist from Crotalaria albida” (Scientific Reports, 2017)
